Experiments:
[1] = system: PGE2 secretion by normal human bladder smooth muscle cells; assay: PGE2 ELISA of normal human bladder smooth muscle cell supernatants; assay type: cell-based
Method: Prostaglandin E2 responses were analyzed by a sequential competitive ELISA (R&D Systems). More specifically, culture supernatants or PGE2 standards were added to the wells of a 96-well polystyrene microplate coated with a goat anti-mouse polyclonal antibody. After one hour incubation on a microplate shaker, an HRP-conjugated PGE2 was added and plates incubated for an additional two hours at room temperature. The plates were then washed and HRP substrate solution added to each well. The color was allowed to develop for 30 min and the reaction stopped by addition sulfuric acid before reading the plate at 450 nm with wavelength correction at 570 nm. Results are expressed as mean pg/ml of PGE2.
(§1) Normal human bladder smooth muscle cells were isolated by enzymatic digestion from macroscopically normal pieces of human bladder. Cells were expended in vitro by culture at 37° C. in a 5% CO2 atmosphere in RPMI 1640 supplemented with 10% fetal bovine serum, 15 mM HEPES, 2 mM L-glutamine, 100 U/ml penicillin, and […] of streptomycin and passage once a week by treatment with trypsin to detach cells followed by reseeding in a new culture flask. The first week of culture, the culture medium was supplemented with 0.5 ng/ml epidermal growth factor, 2 ng/ml fibroblast growth factor, and 5 μg/ml insulin.
(§2) […] When no other effectors were added to the cells, 50 μl of RPMI 1640 without fetal bovine serum were added to the wells to adjust the final volume to 200 μl.
(§3) After 24 hours of culture, 150 μl of culture supernatants were collected, spun down for 2 min at 8,000 rpm at 4° C. to remove cells and debris and stored at −70° C. for analysis of Prostaglandin E2 (PGE2) responses by ELISA. Cells were fixed, permeabilized and blocked for detection of COX2 using a fluorogenic substrate. In selected experiment cells were stimulated 12 hours in vitro for analysis of COX2, PGE2 and cytokine responses.
(§4) COX2 and PGE2 responses were analyzed as described in Example 3. Cytokine responses were analyzed as described in Example 2.

[2] = system: IL-6 secretion by normal human bladder smooth muscle cells; assay: IL-6 ELISA of normal human bladder smooth muscle cell supernatants; assay type: cell-based; conditions: no analgesic
Method: (§5) Culture supernatants were subjected to cytokine-specific ELISA to determine IL-1β, IL-6 and TNF-α responses in cultures of macrophages treated with analgesic, LPS alone or a combination of LPS and analgesic. The assays were performed on Nunc MaxiSorp Immunoplates (Nunc) coated overnight with 100 μl of anti-mouse IL-6, TNF-α mAbs (BD Biosciences) or IL-1β mAb (R&D Systems) in 0.1 M sodium bicarbonate buffer (pH 9.5). After two washes with PBS (200 μl per well), 200 μl of PBS 3% BSA were added in each well (blocking) and the plates incubated for 2 hours at room temperature. Plates were washed again two times by addition of 200 μl per well, 100 μl of cytokine standards and serial dilutions of culture supernatants were added in duplicate and the plates were incubated overnight at 4° C. Finally, the plates were washed twice and incubated with 100 μl of secondary biotinylated anti-mouse IL-6, TNFα mAbs (BD Biosciences) or IL-1β (R&D Systems) followed by peroxidase-labelled goat anti-biotin mAb (Vector Laboratories). The colorimetric reaction was developed by the addition of 2,2′-azino-bis(3)-ethylbenzylthiazoline-6-sulfonic acid (ABTS) substrate and H2O2 (Sigma) and the absorbance measured at 415 nm with a Victor® V multilabel plate reader (PerkinElmer).
as §1
(§6) Bladder smooth muscle cells trypsinized and seeded in microculture plates at a cell density of 3×10^4 cells per well in 100 μl were treated with analgesic solutions (50 μl/well) either alone or together carbachol (10-Molar, 50 μl/well), as an example of non-inflammatory stimuli, or lipopolysaccharide (LPS) of Salmonella typhimurium (1 μg/ml, 50 μl/well), as an example of […] stimuli. When no other effectors were added to the cells, 50 μl of RPMI 1640 without fetal bovine serum were added to the wells to adjust the final volume to 200 μl.
as §3, §4

[3] = system: TNFα secretion by normal human bladder smooth muscle cells; assay: TNFα ELISA of normal human bladder smooth muscle cell supernatants; assay type: cell-based; conditions: stimulus alone, no analgesic (Carbachol 10^−3 M; LPS 10 μg/ml); unstimulated <5
[4] = system: COX2 expression by normal human bladder smooth muscle cells; assay: Cell-based ELISA of total COX2 in normal human bladder smooth muscle cells
Method: COX2 responses were analyzed by a Cell-Based ELISA using Human/mouse total COX2 immunoassay (R&D Systems), following the instructions of the manufacturer. Briefly, after cells fixation and permeabilization, a mouse anti-total COX2 and a rabbit anti-total GAPDH were added to the wells of the clear-bottom black 96-well cell culture microculture plates. After incubation and washes, an HRP-conjugated anti-mouse IgG and an AP-conjugated anti-rabbit IgG were added to the wells. Following another incubation and set of washes, the HRP- and AP-fluorogenic substrates were added. Finally, a Victor® V multilabel plate reader (PerkinElmer) was used to read the fluorescence emitted at 600 nm (COX2 fluorescence) and 450 nm (GAPDH fluorescence). Results are expressed as relative levels of total COX2 as determined by relative fluorescence unit (RFUs) and normalized to the housekeeping protein GAPDH.
as §1, §2, §3, §4

[5] = system: IL-6 secretion by normal human bladder smooth muscle cells; assay: IL-6 ELISA of normal human bladder smooth muscle cell supernatants; assay type: cell-based; conditions: stimulus alone, no analgesic (Carbachol 10^−3 M; LPS 10 μg/ml); unstimulated <5
[6] = system: expression of co-stimulatory molecules by Raw 264 macrophage cells; assay: Flow cytometry of co-stimulatory molecules CD40 and CD80 on macrophages treated with analgesic, with or without LPS; assay type: cell-based, Murine; conditions: LPS 5 ng/ml alone, no analgesic; negative control 20.6
Method: Murine RAW264.7 or J774 macrophage cells (obtained from ATCC) were used in this study. Cells were maintained in a culture medium containing RPMI 1640 supplemented with 10% fetal bovine serum (FBS), 15 mM HEPES, 2 mM L-glutamine, 100 U/ml penicillin, and 100 μg/ml of streptomycin. Cells were cultured at 37° C. in a 5% CO2 atmosphere and split (passages) once a week.
RAW264.7 macrophage cells were seeded in 96-well plates at a cell density of 1.5×10^5 cells per well in 100 μl of the culture medium. […] Briefly, the analgesics were dissolved in FBS-free culture medium (i.e., RPMI 1640 supplemented with 15 mM HEPES, 2 mM L-glutamine, 100 U/ml penicillin, and 100 μg/ml of streptomycin), and diluted to desired concentrations by serial dilution with the same medium. For cells treated with analgesic in the absence of LPS, 50 μl of analgesic solution and 50 μl of FBS-free culture medium were added to each well. For cells treated with analgesic in the presence of LPS, 50 μl of analgesic solution and 50 μl of LPS (from Salmonella typhimurium) in FBS-free culture medium were added to each well. All conditions were tested in duplicates.
After 24 or 48 hours of culture, 150 μl of culture supernatants were collected, spun down for 2 min at 8,000 rpm at 4° C. to remove cells and debris and stored at −70° C. for analysis of cytokine responses by ELISA. The cells were collected and washed by centrifugation (5 min at 1,500 rpm at 4° C.) in 500 μl of Phosphate buffer (PBS). Half of the cells were then snap frozen in liquid nitrogen and stored at −70° C. The remaining cells were stained with fluorescent monoclonal antibodies and analyzed by flow cytometry.
For flow cytometry analysis, macrophages were diluted in 100 μl of FACS buffer (phosphate buffered saline (PBS) with 2% bovine serum albumin (BSA) and 0.01% NaN3) and stained 30 min at 4° C. by addition of FITC-conjugated anti-CD40, PE-conjugated anti-CD80, PE-conjugated anti-CD86 antibody, anti MHC class II (I-A^d) PE (BD Bioscience). Cells were then washed by centrifugation (5 min at 1,500 rpm at 4° C.) in 300 μl of FACS buffer. After a second wash, cells were re-suspended in 200 μl of FACS buffer and the percentage of cells expressing a given marker (single positive), or a combination of markers (double positive) were analyzed with the aid of an Accuri C6 flow cytometer (BD Biosciences).

[7] = system: TNFα secretion by normal human bladder smooth muscle cells; assay: TNFα ELISA of normal human bladder smooth muscle cell supernatants; assay type: cell-based; conditions: no analgesic
Method: as §5, §1, §6, §3, §4

[8] = stimulus alone, no analgesic (Carbachol 10^−3 M; LPS 10 μg/ml), unstimulated <20.5

lipopolysaccharide [LPS]
PGE2 production in response to stimulus alone ([1]; no analgesic): induced production of PGE2
PGE2 levels (pg/ml) Subject 1 [1, 8]: 1125 pg/mL
PGE2 levels (pg/ml) Subject 2 [1, 8]: 998 pg/mL
IL-6 responses to stimulus alone [2]: massive induction
TNFα (pg/ml) Subject 1 [3]: 5725 pg/mL
TNFα (pg/ml) Subject 2 [3]: 4107 pg/mL
COX2 responses to stimulus alone ([4]; no analgesic): higher levels of COX2 responses
Total COX2 levels (Normalized RFUs) subject 2 ([4]; stimulus alone, no analgesic (Carbachol 10^−3 M; LPS 10 μg/ml), unstimulated 199): 633 Normalized RFUs
Total COX2 levels (Normalized RFUs) subject 1 ([4]; stimulus alone, no analgesic (Carbachol 10^−3 M; LPS 10 μg/ml), unstimulated 230): 672 Normalized RFUs
IL-6 (pg/ml) Subject 1 [5]: 4838 pg/mL
IL-6 (pg/ml) Subject 2 [5]: 4383 pg/mL
% Positive CD40+CD80+ [6]: 77.8%
TNFα responses to stimulus alone [7]: massive induction
